Assay results as given in PMC7774954, “Interactomic affinity profiling by holdup assay: Acetylation and distal residues impact the PDZome-binding specificity of PTEN phosphatase” (PLoS ONE, 2020).

Experiments:
MAST2 PDZ 1 = target: T1, MAST2 PDZ 1 (Homo sapiens, UniProt Q6P0Q8); test: Holdup assay, MAST2-1; format: binding
T1 construct: made in house; host or cells: E. coli
T1 sequence (Q6P0Q8 1104-1192 limits assumed): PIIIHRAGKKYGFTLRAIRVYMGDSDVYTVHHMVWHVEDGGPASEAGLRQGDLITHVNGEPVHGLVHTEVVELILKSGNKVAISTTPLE
Protocol: (§1) The holdup assay was performed on a Tecan freedom Evo200 robot with 384-well plates in singlicate for the three 11-mer PTEN variants and the 13-mer PTEN peptide as described in [31, 32]. Briefly, prior to interaction assay, 2.5 μL of streptavidin resin was saturated in each well with 20 μL of biotinylated PBM peptides (42 μM) and then washed twice with an excess of free biotin, while the reference resin was incubated only with biotin. Right before the holdup experiment, the PDZ library was spiked with an internal standard of lysozyme. Then, the biotin- or PBM-saturated resin was incubated, each in a distinct well of a 384-well plate, with complete cell lysates diluted so that the concentration of the tag-PDZ present in the crude extract is adjusted at 4 μM. After a sufficient time to reach complex equilibrium (15 min.), a fast and mild filtration step is performed and the tag-PDZ concentrations were measured by capillary electrophoresis instrument (LabChip GXII, PerkinElmer, Massachusets, USA). Standard markers were used to convert migration time into molecular weight on the LabChip software and inappropriate molecular weight markers were corrected or excluded.
(§2) For filtered data, the BI was extracted with the following equation (Eq 1) that estimates the depleted fraction after superimposition of the sample and reference electropherograms: BI=Iref−Ilig/Iref (1) where Iref and Ilig are the intensities of the tag-PDZ peaks measured, for each PDZ domain/PBM peptide interaction pair, in the biotin reference and the PBM electropherograms, respectively.
(§3) BIs were transformed into dissociation constants (KD) using the following formula: KD=([PDZtot]−BI·[PDZtot])·([PBMtot]−BI·[PDZtot])/BI·[PDZtot] (2) where [PDZtot] and [PBMtot] correspond to the total concentrations of the PDZ domain (usually around 4 μM) and the PBM peptide used during the assay. Since the PBMtot concentration in the resin during the holdup assay parameter may differ from one peptide to another and remains unknown, it is impossible to directly convert BI values into KD constants. We systematically determined the KD constants for a subset of PDZ/PBM pairs by competitive FP. […] For each PBM, the average peptide concentration was calculated after outlier rejection based on the absolute distances from the median as compared to three times the standard deviation (3σ rule), with never more than 2 values rejected.

SNX27 PDZ 1 = target: T2, SNX27 PDZ 1 (Homo sapiens, UniProt Q96L92); test: Holdup assay, SNX27-1; format: binding
T2 construct: made in house; host or cells: E. coli
Protocol: as §1, §2, §3

ARHGAP23-1 = test: Holdup assay, ARHGAP23-1; format: binding, human
ARHGEF12-1 = target: T3, ARHGEF12-1 (Homo sapiens, UniProt Q9NZN5); test: Holdup assay, ARHGEF12-1; format: binding
T3 sequence (Q9NZN5 72-151): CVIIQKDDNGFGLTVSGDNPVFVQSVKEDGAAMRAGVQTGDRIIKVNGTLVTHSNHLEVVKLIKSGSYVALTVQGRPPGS

CARD11-1 = test: Holdup assay, CARD11-1; format: binding, human
DLG1-1 = DLG1-1 (Homo sapiens, UniProt Q12959); test: Holdup assay, DLG1-1; format: binding; conditions: DLG1-1
DLG2-1 = DLG2-1 (Homo sapiens, UniProt Q15700); test: Holdup assay, DLG2-1; format: binding; conditions: DLG2-1
DLG2-2 = DLG2-2 (Homo sapiens, UniProt Q15700); test: Holdup assay, DLG2-2; format: binding
DLG5-1 = test: Holdup assay, DLG5-1; format: binding, human
DLG5-2 = test: Holdup assay, DLG5-2; format: binding, human
DVL1-1 = test: Holdup assay, DVL1-1; format: binding, human
DVL2-1 = test: Holdup assay, DVL2-1; format: binding, human
GIPC1-1 = test: Holdup assay, GIPC1-1; format: binding, human
HTRA2-1 = test: Holdup assay, HTRA2-1; format: binding, human
HTRA4-1 = test: Holdup assay, HTRA4-1; format: binding, human
IL16-3 = test: Holdup assay, IL16-3; format: binding, human
INADL-5 = test: Holdup assay, INADL-5; format: binding, human
LDB3-1 = test: Holdup assay, LDB3-1; format: binding, human
LIN7B-1 = test: Holdup assay, LIN7B-1; format: binding, human
LNX1-3 = test: Holdup assay, LNX1-3; format: binding, human
LNX2-2 = target: T4, LNX2-2 (Homo sapiens, UniProt Q8N448); test: Holdup assay, LNX2-2; format: binding
T4 sequence (Q8N448 339-422): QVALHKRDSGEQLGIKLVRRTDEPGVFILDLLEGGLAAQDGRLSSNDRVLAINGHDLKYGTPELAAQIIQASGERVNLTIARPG

LNX2-4 = test: Holdup assay, LNX2-4; format: binding, human
MAGI2-1 = test: Holdup assay, MAGI2-1; format: binding, human
MAGI3-4 = test: Holdup assay, MAGI3-4; format: binding, human
MAGIX-1 = test: Holdup assay, MAGIX-1; format: binding, human
MPDZ-1 = test: Holdup assay, MPDZ-1; format: binding, human

In the case of CC[C@H](C)[C@H](NC(=O)[C@H](CCC(N)=O)NC(=O)[C@@H](NC(=O)[C@H](Cc1c[nH]cn1)NC(=O)[C@H](CCC(N)=O)NC(=O)[C@H](CC(=O)O)NC(=O)[C@H](CCC(=O)O)NC(=O)[C@H](CC(=O)O)NC(=O)CCC(=O)NCCCOCCOCCOCCCNC(=O)CCCC[C@@H]1SC[C@@H]2NC(=O)N[C@@H]21)[C@@H](C)O)C(=O)N[C@H](C(=O)N[C@@H](CCCCN)C(=O)N[C@H](C(=O)O)C(C)C)[C@@H](C)O [PTEN_11], the Kd (MAST2 PDZ 1) is reported as 12.7 µM, the BI (MAST2 PDZ 1; MAST2-1) is reported as 0.711 and the “BI (binding intensity)” value (MAST2 PDZ 1; MAST2-1, holdup, singlicate, 0.00 no binding to 1.00 strong binding) is reported as 0.71. For the same compound, the Kd (SNX27 PDZ 1) was 13.8 µM, the BI (ARHGAP23-1) was -0.109 and the LogKD (ARHGAP23-1) was 3.519. For the same compound, the BI (ARHGEF12-1) was 0.392, the Kd (ARHGEF12-1) was 50.3 µM and the BI (CARD11-1) was -0.016. For the same compound, the LogKD (CARD11-1) was 3.519, the BI (DLG1-1) was 0.109 and the BI (DLG2-1) was 0.034. For the same compound, the LogKD (DLG2-1) was 3.519, the BI (DLG2-2) was 0.168 and the BI (DLG5-1) was -0.042. It also gave a LogKD (DLG5-1) of 3.519, a BI (DLG5-2) of 0.001 and a LogKD (DLG5-2) of 3.519. The BI (DVL1-1) was -0.007, the LogKD (DVL1-1) was 3.519 and the BI (DVL2-1) was -0.008. It also gave a LogKD (DVL2-1) of 3.519, a BI (GIPC1-1) of 0.042 and a LogKD (GIPC1-1) of 3.519. It also gave a BI (HTRA2-1) of 0.07, a LogKD (HTRA2-1) of 3.519 and a BI (HTRA4-1) of 0.062. The LogKD (HTRA4-1) was 3.519, the BI (IL16-3) was 0.004 and the LogKD (IL16-3) was 3.519. For the same compound, the BI (INADL-5) was -0.044, the LogKD (INADL-5) was 3.519 and the BI (LDB3-1) was -0.027. The LogKD (LDB3-1) was 3.519, the BI (LIN7B-1) was -0.046 and the LogKD (LIN7B-1) was 3.519. For the same compound, the BI (LNX1-3) was -0.02, the LogKD (LNX1-3) was 3.519 and the BI (LNX2-2) was -0.039. The LogKD (LNX2-2) was 3.519, the BI (LNX2-4) was -0.124 and the LogKD (LNX2-4) was 3.519. The BI (MAGI2-1) was -0.04, the LogKD (MAGI2-1) was 3.519 and the BI (MAGI3-4) was -0.092. The LogKD (MAGI3-4) was 3.519, the BI (MAGIX-1) was 0.014 and the LogKD (MAGIX-1) was 3.519. For the same compound, the BI (MPDZ-1) was 0.039 and the LogKD (MPDZ-1) was 3.519.
